Experimental data from patent US20190298664A1, “METHOD AND KIT FOR MYOCARDIAL REPERFUSION, AND METHOD FOR ATTENUATING OR REDUCING MYOCARDIAL REPERFUSION INJURY” (Academia Sinica, priority 2018, published 2019).

Key:
Type in all cases: in vivo, mouse
Details in all cases: PVS 5 mg/kg intramyocardial at beginning of ischemia; ischemia 1 h, reperfusion 4 h
[1] = test system: myocardial protein tyrosine phosphorylation; assay: Immunoblotting of heart extracts of I/R mice (anti-pTyr, p-Paxillin, p-p130cas, p-ErbB-2)
Procedure: (§1) We anesthetized the mouse with 5% isoflurane mixed with room air until loss of sensation of pain and then maintained the mouse in anesthesia status with 2% isoflurane mixed with room air through the whole procedure. The mouse's body temperature was maintained at 37° C. by a heating pad. After the mouse was intubated, we provided artificial ventilation to the mouse with a small animal ventilator. Then the chest cavity was opened at the second intercostal space and homemade chest retractors were utilized to widen the incision. We pulled the pericardium apart carefully and exposed the left anterior descending artery (LAD). A 7-0 silk was put underneath the LAD at the position of the tip of the left auricle, a 6 mm length of PE-10 tube was put on the surface of the LAD, and then a double knot was made to occlude the blood flow of LAD. The success of ligation was confirmed by paling the anterior wall of the LV. For the reperfusion group, the LAD knot would be untied for the purpose of reperfusion after 1 hour of ischemia. For the sham operation group, all procedures were the same except for the knot that occluded the LAD flow. After the successful procedure, we left the silk in situ, closed the chest cavity and weaned the animal from the ventilator.
Hearts from mice received different treatment were gently homogenized in ice-cold RIPA buffer [250 mM Tris-HCl pH 7.4, 750 mM NaCl, detergent mix (5% NP-40, 2.5% Na-deoxycholate and 0.5% SDS), and 1× protease inhibitor cocktail (EDTA free)] containing phosphatase inhibitors (2 mM Na3VO4, 10 mM NaF, and 10 mM Na2P2O7). The homogenates were centrifuged at 16,100×g at 4° C. for 10 minutes to remove the debris. Protein concentrations were determined by Bradford protein assay. Equal amounts of protein extract from those mice were separated by SDS-PAGE on an 8% or 10% polyacrylamide gel and then transferred to PVDF membrane. Membranes were incubated with indicated primary antibody at 4° C. overnight followed by incubated with secondary antibodies for 1 hour at room temperature. The protein abundance was detected by the signal intensity of each specific band.

[2] = test system: I/R mice; assay: Serum troponin I measurement in I/R mice
Procedure: as §1
Before the mouse was sacrificed, blood was drawn from the facial vein. The blood was put in the room temperature for 30 minutes and then centrifuged at 4° C. for 15 minutes at 5000 rpm. After centrifuging, the serum is collected for troponin I measurement with troponin I ELISA kit (KT-469, Kamiya Biomedical Company) according to the manufacture's protocol.

[3] = test system: I/R mice; assay: Myocardial infarct size (Evans blue/TTC staining) in I/R mice
Procedure: as §1
At the end of experiment, the animal was sacrificed. We opened the chest cavity and exposed the heart and aorta. The heart was perfused with 0.9% saline from the apex until the coronary vessels and myocardium turning into pale color. After saline perfusion, the LAD knot was tied again. 1 mL of 1% Evans blue dye was delivered into the heart through the aortic root by retrograde injection. The dye uniformly perfused the whole heart except in the area of the heart previously perfused by the occluded coronary artery (area at risk, AAR). Then the heart was quickly removed, washed in ice-cold 0.9% saline followed by frozen at −20° C. for 20 minutes, then cut into slices of 1 mm with heart matrix. […] The areas stained with Evans blue negative but TTC-positive (AAR), and TTC-negative area (infarct area) were all measured digitally by ImageJ software. […]

SMILES: C=CS(=O)(=O)c1ccccc1 [PVS, phenyl vinyl sulfone]
- I/R-caused tyrosine dephosphorylation of myocardial proteins [1]: rebounded
- Release of troponin I into the blood [2]: decreased
- Area of heart infarction [3]: reduced
